Source: ChEMBL document CHEMBL1201862, “PubChem BioAssay data set” (2004)
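Five concentrations, 48 hours, 96-well plates. GI50 is the concentration that inhibits growth by half.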 Activity calls are given as the source filed them. Cut-off read from the data, not from the text of the source: active = GI50 up to about 1.1 µM and inactive = higher.

Legend:
Experiment in all cases: growth of human tumour cells (NCI), 48 h
HT-29 = system: HT-29
SF-268 = system: SF-268
EKVX = system: EKVX
OVCAR-5 = system: OVCAR-5
RPMI-8226 = system: RPMI-8226
SW-620 = system: SW-620
SNB-75 = system: SNB-75
LOX IMVI = system: LOX IMVI
NCI-H226 = system: NCI-H226
SK-MEL-5 = system: SK-MEL-5
HL-60 = system: HL-60
SK-MEL-2 = system: SK-MEL-2
HCC 2998 = system: HCC 2998
DLD-1 = system: DLD-1
TK-10 = system: TK-10
NCI-H460 = system: NCI-H460

Measured: GI50

O=C1N=C2Sc3ccc4ccccc4c3N2C1=O
inactive: HT-29 32.7 µM | SF-268 24.7 µM | EKVX 16.1 µM | OVCAR-5 50.7 µM | RPMI-8226 > 100 µM | SW-620 21.4 µM | SNB-75 23.6 µM | LOX IMVI 19.2 µM | NCI-H226 22.1 µM | SK-MEL-5 22.4 µM | HL-60 43.6 µM | SK-MEL-2 26.4 µM | HCC 2998 27 µM | DLD-1 31.1 µM | TK-10 34.4 µM | NCI-H460 25.1 µM

CC1=CCN(c2ccccn2)OC1c1ccccc1 (stereo not given)
inactive: HT-29 > 100 µM | SF-268 > 100 µM | EKVX > 100 µM | OVCAR-5 59.8 µM | RPMI-8226 66.8 µM | SW-620 > 100 µM | SNB-75 > 100 µM | LOX IMVI > 100 µM | NCI-H226 > 100 µM | HL-60 66.8 µM | SK-MEL-2 > 100 µM | HCC 2998 > 100 µM | DLD-1 > 100 µM | NCI-H460 > 100 µM

COc1ccccc1OCC(COC(=O)Nc1ccc(C)cc1)OC(=O)Nc1ccc(C)cc1 (stereo not given)
inactive: HT-29 19.2 µM | SF-268 19.5 µM | EKVX 25 µM | OVCAR-5 21.8 µM | RPMI-8226 16.3 µM | SW-620 14.9 µM | SNB-75 23 µM | LOX IMVI 15.8 µM | NCI-H226 24.7 µM | SK-MEL-5 20.7 µM | HL-60 15 µM | SK-MEL-2 13.8 µM | HCC 2998 20.6 µM | DLD-1 16 µM | TK-10 18.4 µM | NCI-H460 16.7 µM

O=C1OC2C=CC1C1(CCOC1=O)C2 (stereo not given)
inactive: SF-268 > 100 µM | EKVX > 100 µM | OVCAR-5 > 100 µM | RPMI-8226 > 100 µM | SW-620 > 100 µM | SNB-75 46.8 µM | LOX IMVI > 100 µM | NCI-H226 > 100 µM | SK-MEL-5 > 100 µM | HL-60 > 100 µM | SK-MEL-2 > 100 µM | HCC 2998 > 100 µM | DLD-1 > 100 µM | TK-10 > 100 µM | NCI-H460 > 100 µM

c1ccc(SC(CCCCC(Sc2ccccc2)Sc2ccccc2)Sc2ccccc2)cc1
inactive: SF-268 > 100 µM | EKVX > 100 µM | RPMI-8226 > 100 µM | SW-620 > 100 µM | SNB-75 > 100 µM | LOX IMVI > 100 µM | SK-MEL-5 > 100 µM | HL-60 > 100 µM | SK-MEL-2 > 100 µM | HCC 2998 > 100 µM | DLD-1 > 100 µM | TK-10 > 100 µM | NCI-H460 > 100 µM

N=C1SCCS1
inactive: HT-29 > 100 µM | SF-268 > 100 µM | EKVX > 100 µM | OVCAR-5 > 100 µM | RPMI-8226 > 100 µM | SW-620 > 100 µM | SNB-75 36.2 µM | LOX IMVI > 100 µM | NCI-H226 > 100 µM | SK-MEL-5 > 100 µM | HL-60 > 100 µM | SK-MEL-2 > 100 µM | HCC 2998 > 100 µM | DLD-1 > 100 µM | TK-10 > 100 µM | NCI-H460 > 100 µM

CO[C@@H]1C=C[C@@]23c4cc5c(cc4C(=O)O[C@H]2CN(C)[C@H]3C1)OCO5
inactive: HT-29 > 100 µM | SF-268 > 100 µM | EKVX > 100 µM | OVCAR-5 > 100 µM | RPMI-8226 > 100 µM | SW-620 > 100 µM | SNB-75 81.7 µM | LOX IMVI > 100 µM | SK-MEL-5 > 100 µM | HL-60 > 100 µM | SK-MEL-2 > 100 µM | HCC 2998 > 100 µM | DLD-1 > 100 µM | TK-10 > 100 µM | NCI-H460 > 100 µM
